From US12570675B2, “Boronic acid compounds” (LG CHEM, LTD., priority 2020, dated 2026) come the findings set out here.

The target of this assay is Proteasome chymotrypsin-like activity (S26 protein from RPMI8226 cells) (Homo sapiens, UniProt P28074). The assay is classed as biochemical. As to conditions: S26 protein from RPMI8226 cell extract 2 ug/well, substrate 20 uM, 37° C., 90 minutes; read-out: Proteasome chymotrypsin-like activity inhibition IC50. Put shortly:
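RPMI8226 myeloma cell lysate (S26 fraction, 20 mM Tris-HCl pH 8.0; 2 ug/well) incubated with compound serially diluted from 10 uM (0.5% DMSO) and 20 uM Suc-LLVY-AMC (chymotrypsin-like) or Z-LLE-AMC (caspase-like) for 90 min at 37 °C. Fluorescence read; IC50 from % of uninhibited signal.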

A value given as a limit tells only on which side of the number the result lay.

Proteasome chymotrypsin-like activity (S26 protein from RPMI8226 cells), sequence (P28074 60-263 limits assumed): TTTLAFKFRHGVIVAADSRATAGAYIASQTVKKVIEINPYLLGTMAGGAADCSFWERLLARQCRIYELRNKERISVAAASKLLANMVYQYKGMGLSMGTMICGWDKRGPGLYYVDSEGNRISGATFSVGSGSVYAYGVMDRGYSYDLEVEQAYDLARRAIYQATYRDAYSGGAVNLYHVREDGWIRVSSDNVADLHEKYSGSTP

For `CC(C)C[C@H](NC(=O)C1(Cc2cccc(Cl)c2)CC(CNC(=O)c2nccc3ccccc23)=NO1)B(O)O` (stereo partly drawn) [Example 175, ((1R)-1-(5-(3-chlorobenzyl)-3-((isoquinolin-1-carboxamido)methyl)-4,5-dihydroisoxazol-5-carboxamido)-3-methylbutyl)boronic acid], the IC50 (usually the concentration that inhibits the measured activity by half) was less than 10 nM.

In the case of `CC(C)C[C@H](NC(=O)C1CC(C(=O)NCc2cc(Cl)ccc2Cl)=NO1)B(O)O` (stereo partly drawn) [Example 75, ((1R)-1-(3-((2,5-dichlorobenzyl)carbamoyl)-4,5-dihydroisoxazol-5-carboxamido)-3-methylbutyl)boronic acid], the IC50 was less than 100 nM.

On to `CC(C)C[C@H](NC(=O)C1CC(c2cccc(-c3ccccn3)c2)=NO1)B(O)O` (stereo partly drawn) [Example 34, ((1R)-3-methyl-1-(3-(3-(pyridin-2-yl)phenyl)-4,5-dihydroisoxazol-5-carboxamido)butyl)boronic acid], for which the IC50 was less than 100 nM.

Consider `CC(C)C[C@H](NC(=O)C1(Cc2ccccc2)CC(CNC(=O)c2cn(C)c3ccccc23)=NO1)B(O)O` (stereo partly drawn) [Example 208, ((1R)-1-(5-benzyl-3-((1-methyl-1H-indol-3-carboxamido)methyl)-4,5-dihydroisoxazol-5-carboxamido)-3-methylbutyl)boronic acid], for which the IC50 is less than 10 nM.

In the case of `CC(C)C[C@H](NC(=O)C1CC(c2cccc(-c3ccccc3)c2)=NO1)B(O)O` (stereo partly drawn) [Example 20, ((1R)-1-(3-([1,1′-biphenyl]-3-yl)-4,5-dihydroisoxazol-5-carboxamido)-3-methylbutyl)boronic acid], the IC50 is less than 250 nM.

As to `CC(C)C[C@H](NC(=O)C1(CC(C)C)CC(CNC(=O)c2cc(Cl)ccc2Cl)=NO1)B(O)O` (stereo partly drawn) [Example 90, ((1R)-1-(3-((2,5-dichlorobenzamido)methyl)-5-isobutyl-4,5-dihydroisoxazol-5-carboxamido)-3-methylbutyl)boronic acid], the IC50 is less than 25 nM.

Regarding `CC(C)C[C@H](NC(=O)C1(Cc2ccccc2)CC(CNC(=O)c2cnc3ccccc3n2)=NO1)B(O)O` (stereo partly drawn) [Example 122, ((1R)-1-(5-benzyl-3-((quinoxalin-2-carboxamido)methyl)-4,5-dihydroisoxazol-5-carboxamido)-3-methylbutyl)boronic acid], the IC50 is less than 10 nM.

`CC(C)C[C@H](NC(=O)C1(Cc2ccccc2)CC(CNC(=O)c2ccnc3c2ccn3C)=NO1)B(O)O` (stereo partly drawn) [Example 210, ((1R)-1-(5-benzyl-3-((1-methyl-1H-pyrrolo[2,3-b]pyridin-4-carboxamido)methyl)-4,5-dihydroisoxazol-5-carboxamido)-3-methylbutyl)boronic acid]: the IC50 is less than 10 nM.

Consider `O=C(NCC1=NOC(Cc2ccccc2)(C(=O)N[C@@H](Cc2ccccc2)B(O)O)C1)c1cccc2nccn12` (stereo partly drawn) [Example 302, ((1R)-1-(5-benzyl-3-((imidazo[1,2-a]pyridin-5-carboxamido)methyl)-4,5-dihydroisoxazol-5-carboxamido)-2-phenylethyl)boronic acid], for which the IC50 is less than 10 nM.

Regarding `CC(C)C[C@H](NC(=O)C1CC(c2cccc(OC(F)(F)F)c2)=NO1)B(O)O` (stereo partly drawn) [Example 37, ((1R)-3-methyl-1-(3-(3-(trifluoromethoxy)phenyl)-4,5-dihydroisoxazol-5-carboxamido)butyl)boronic acid], the IC50 is less than 500 nM.

As to `COC[C@H](NC(=O)c1cccc(C)n1)C1=NOC(Cc2ccccc2)(C(=O)N[C@@H](CC(C)C)B(O)O)C1` (stereo partly drawn) [Example 195, ((1R)-1-(5-benzyl-3-((R)-2-methoxy-1-(6-methylpicolinamido)ethyl)-4,5-dihydroisoxazol-5-carboxamido)-3-methylbutyl)boronic acid], the IC50 was less than 50 nM.

For `Cc1cccc(C(=O)N[C@@H](CC(C)C)C2=NOC(Cc3ccccc3)(C(=O)N[C@@H](CC(C)C)B(O)O)C2)n1` (stereo partly drawn) [Example 194, ((1R)-1-(5-benzyl-3-((S)-3-methyl-1-(6-methylpicolinamido)butyl)-4,5-dihydroisoxazol-5-carboxamido)-3-methylbutyl)boronic acid], the IC50 is less than 250 nM.

As for `CC(C)C[C@H](NC(=O)C1CC(CNC(=O)c2ccccn2)=NO1)B(O)O` (stereo partly shown) [Example 60], the IC50 was less than 250 nM.

As to `CC(C)C[C@H](NC(=O)C1CC([C@@H](NC(=O)c2nccc3ccccc23)C(C)C)=NO1)B(O)O` (stereo partly drawn) [Example 67, ((1R)-1-(3-((S)-1-(isoquinolin-1-carboxamido)-2-methylpropyl)-4,5-dihydroisoxazol-5-carboxamido)-3-methylbutyl)boronic acid], the IC50 is less than 25 nM.

With `CC(C)C[C@H](NC(=O)C1CC(c2ccnc3ccccc23)=NO1)B(O)O` (stereo partly drawn) [Example 23, ((1R)-3-methyl-1-(3-(quinolin-4-yl)-4,5-dihydroisoxazol-5-carboxamido)butyl)boronic acid], the IC50 is less than 250 nM.

For the molecule `CC(C)C[C@H](NC(=O)C1CC(CCc2ccccc2)=NO1)B(O)O` (stereo partly drawn) [Example 11, ((1R)-3-methyl-1-(3-penetyl-4,5-dihydroisoxazol-5-carboxamido)butyl)boronic acid], the IC50 is less than 250 nM.

For `CC(C)C[C@H](NC(=O)C1(C2(c3ccccc3)CC2)CC(CNC(=O)c2nccc3ccccc23)=NO1)B(O)O` (stereo partly drawn) [Example 180, ((1R)-1-(3-((isoquinolin-1-carboxamido)methyl)-5-(1-phenylcyclopropyl)-4,5-dihydroisoxazol-5-carboxamido)-3-methylbutyl)boronic acid], the IC50 is less than 50 nM.

As to `CC(C)C[C@H](NC(=O)C1CC([C@H](CC(C)C)NC(=O)c2ccccc2)=NO1)B(O)O` (stereo partly drawn) [Example 104, ((1R)-1-(3-((S)-1-benzamido-3-methylbutyl)-4,5-dihydroisoxazol-5-carboxamido)-3-methylbutyl)boronic acid], the IC50 was less than 100 nM.

Consider `CC(C)C[C@H](NC(=O)C1(Cc2ccccc2)CC(CNCc2cc(Cl)ccc2Cl)=NO1)B(O)O` (stereo partly drawn) [Example 146, ((1R)-1-(5-benzyl-3-(((2,5-dichlorobenzyl)amino)methyl)-4,5-dihydroisoxazol-5-carboxamido)-3-methylbutyl)boronic acid], for which the IC50 was less than 25 nM.

With `COc1cccc(CC2(C(=O)N[C@@H](CC(C)C)B(O)O)CC(CNC(=O)c3cc(C)nn3C3CCCC3)=NO2)c1` (stereo partly drawn) [Example 240, ((1R)-1-(3-((1-cyclopentyl-3-methyl-1H-pyrazol-5-carboxamido)methyl)-5-(3-methoxybenzyl)-4,5-dihydroisoxazol-5-carboxamido)-3-methylbutyl)boronic acid], the IC50 is less than 10 nM.

Regarding `N#Cc1cccc(C(=O)NCC2=NOC(Cc3ccccc3)(C(=O)N[C@@H](Cc3ccccc3)B(O)O)C2)c1` (stereo partly drawn) [Example 317, ((1R)-1-(5-benzyl-3-((3-cyanobenzamido)methyl)-4,5-dihydroisoxazol-5-carboxamido)-2-phenylethyl)boronic acid], the IC50 is less than 10 nM.

Regarding `COc1cccc(C(=O)NCC2=NOC(Cc3ccccc3)(C(=O)N[C@@H](Cc3ccccc3)B(O)O)C2)c1` (stereo partly drawn) [Example 285, ((1R)-1-(5-benzyl-3-((3-methoxybenzamido)methyl)-4,5-dihydroisoxazol-5-carboxamido)-2-phenylethyl)boronic acid], the IC50 is less than 10 nM.

Consider `CC(C)C[C@H](NC(=O)C1CC(c2cccc(C(C)(C)C)c2)=NO1)B(O)O` (stereo partly drawn) [Example 14, ((1R)-1-(3-(3-(tert-butyl)phenyl)-4,5-dihydroisoxazol-5-carboxamido)-3-methylbutyl)boronic acid], for which the IC50 is less than 250 nM.

As to `CC(C)C[C@H](NC(=O)C1(C2(c3ccccc3)CC2)CC(CNC(=O)c2cccn3ccnc23)=NO1)B(O)O` (stereo partly drawn) [Example 181, ((1R)-1-(3-((imidazo[1,2-a]pyridin-8-carboxamido)methyl)-5-(1-phenylcyclopropyl)-4,5-dihydroisoxazol-5-carboxamido)-3-methylbutyl)boronic acid], the half-inhibitory concentration (IC50) is less than 50 nM.

In the case of `CC(C)C[C@H](NC(=O)C1(C(F)c2ccccc2)CC(CNC(=O)c2nccc3ccccc23)=NO1)B(O)O` (stereo partly drawn) [Example 114, ((1R)-1-(5-(fluoro(phenyl)methyl)-3-((isoquinolin-1-carboxamido)methyl)-4,5-dihydroisoxazol-5-carboxamido)-3-methylbutyl)boronic acid], the IC50 is less than 10 nM.

`CC[C@H](NC(=O)C1(Cc2ccccc2)CC(CNC(=O)c2cccn3ccnc23)=NO1)B(O)O` (stereo partly drawn) [Example 297, ((1R)-1-(5-benzyl-3-((imidazo[1,2-a]pyridin-8-carboxamido)methyl)-4,5-dihydroisoxazol-5-carboxamido)propyl)boronic acid]: the concentration for half-maximal inhibition (IC50) was less than 25 nM.

As for `CC(C)C[C@H](NC(=O)C1(Cc2ccccc2)CC(CNC(=O)c2ccc(Cl)cc2)=NO1)B(O)O` (stereo partly shown) [Example 287], the IC50 was less than 10 nM.

Take `CC(C)C[C@H](NC(=O)C1CC(Cc2ccccc2)=NO1)B(O)O` (stereo partly drawn) [Example 8, ((1R)-1-(3-benzyl-4,5-dihydroisoxazol-5-carboxamido)-3-methylbutyl)boronic acid]: the IC50 is less than 250 nM.

For the molecule `Cc1cccc(CC2(C(=O)N[C@@H](CC(C)C)B(O)O)CC(CNC(=O)c3cc(C(C)(C)C)nn3C(C)C)=NO2)c1` (stereo partly drawn) [Example 237, ((1R)-1-(3-((3-(tert-butyl)-1-isopropyl-1H-pyrazol-5-carboxamido)methyl)-5-(3-methylbenzyl)-4,5-dihydroisoxazol-5-carboxamido)-3-methylbutyl)boronic acid], the IC50 is less than 10 nM.

On to `CC(C)C[C@H](NC(=O)C1(C(F)(F)c2ccccc2)CC(CNC(=O)c2nccc3ccccc23)=NO1)B(O)O` (stereo partly drawn) [Example 155, ((1R)-1-(5-(difluoro(phenyl)methyl)-3-((isoquinolin-1-carboxamido)methyl)-4,5-dihydroisoxazol-5-carboxamido)-3-methylbutyl)boronic acid], for which the IC50 was less than 25 nM.

For the molecule `CC(C)C[C@H](NC(=O)C1CC(c2cccc(-c3ccccc3)n2)=NO1)B(O)O` (stereo partly drawn) [Example 25, ((1R)-3-methyl-1-(3-(6-phenylpyridin-2-yl)-4,5-dihydroisoxazol-5-carboxamido)butyl)boronic acid], the IC50 was less than 100 nM.
